This is an account of results in patent US8471005B2 (Cephalon, Inc., priority 2008, dated 2013).

One experiment concerns the target T1, JAK2 (Homo sapiens, UniProt O60674).
T1 construct: host or cells: baculovirus expression system
Description: Recombinant Human JAK2 Kinase Assay (TRF). In kind it is biochemical. The settings on record: JAK2 Kinase Inhibition; read-out: JAK2 Potency. In outline: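 Baculovirus-expressed JAK2 (15 ng/ml) phosphorylated a biotinylated 15-mer peptide captured on Neutravidin, in 20 mM HEPES pH 7.2, 0.2 μM ATP, 1 mM MnCl2, 0.1% BSA, 2.5% DMSO final, 20 min at room temperature. Phosphoproduct detected by time-resolved fluorescence with Eu-N1-labelled PY100 antibody.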

The target in another experiment is T2, ALK (Homo sapiens, UniProt Q9UM73).
T2 construct: host or cells: baculovirus expression system
Briefly: ALK Kinase Assay (ELISA/TRF, PLC-γ substrate). In kind it is biochemical. The settings on record: ALK Kinase Inhibition; read-out: ALK Potency. In outline:
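PLC-γ coat 10 μg/mL in TBS; ALK 30 ng/ml added to start; 37° C, 15 min; Eu-N1 PT66 antibody detection (TRF). IC50: % inhibition vs log10 [cpd], variable-slope sigmoidal fit.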
In general terms: ELISA stands for enzyme-linked immunosorbent assay.

T2 sequence (Q9UM73 19-1620): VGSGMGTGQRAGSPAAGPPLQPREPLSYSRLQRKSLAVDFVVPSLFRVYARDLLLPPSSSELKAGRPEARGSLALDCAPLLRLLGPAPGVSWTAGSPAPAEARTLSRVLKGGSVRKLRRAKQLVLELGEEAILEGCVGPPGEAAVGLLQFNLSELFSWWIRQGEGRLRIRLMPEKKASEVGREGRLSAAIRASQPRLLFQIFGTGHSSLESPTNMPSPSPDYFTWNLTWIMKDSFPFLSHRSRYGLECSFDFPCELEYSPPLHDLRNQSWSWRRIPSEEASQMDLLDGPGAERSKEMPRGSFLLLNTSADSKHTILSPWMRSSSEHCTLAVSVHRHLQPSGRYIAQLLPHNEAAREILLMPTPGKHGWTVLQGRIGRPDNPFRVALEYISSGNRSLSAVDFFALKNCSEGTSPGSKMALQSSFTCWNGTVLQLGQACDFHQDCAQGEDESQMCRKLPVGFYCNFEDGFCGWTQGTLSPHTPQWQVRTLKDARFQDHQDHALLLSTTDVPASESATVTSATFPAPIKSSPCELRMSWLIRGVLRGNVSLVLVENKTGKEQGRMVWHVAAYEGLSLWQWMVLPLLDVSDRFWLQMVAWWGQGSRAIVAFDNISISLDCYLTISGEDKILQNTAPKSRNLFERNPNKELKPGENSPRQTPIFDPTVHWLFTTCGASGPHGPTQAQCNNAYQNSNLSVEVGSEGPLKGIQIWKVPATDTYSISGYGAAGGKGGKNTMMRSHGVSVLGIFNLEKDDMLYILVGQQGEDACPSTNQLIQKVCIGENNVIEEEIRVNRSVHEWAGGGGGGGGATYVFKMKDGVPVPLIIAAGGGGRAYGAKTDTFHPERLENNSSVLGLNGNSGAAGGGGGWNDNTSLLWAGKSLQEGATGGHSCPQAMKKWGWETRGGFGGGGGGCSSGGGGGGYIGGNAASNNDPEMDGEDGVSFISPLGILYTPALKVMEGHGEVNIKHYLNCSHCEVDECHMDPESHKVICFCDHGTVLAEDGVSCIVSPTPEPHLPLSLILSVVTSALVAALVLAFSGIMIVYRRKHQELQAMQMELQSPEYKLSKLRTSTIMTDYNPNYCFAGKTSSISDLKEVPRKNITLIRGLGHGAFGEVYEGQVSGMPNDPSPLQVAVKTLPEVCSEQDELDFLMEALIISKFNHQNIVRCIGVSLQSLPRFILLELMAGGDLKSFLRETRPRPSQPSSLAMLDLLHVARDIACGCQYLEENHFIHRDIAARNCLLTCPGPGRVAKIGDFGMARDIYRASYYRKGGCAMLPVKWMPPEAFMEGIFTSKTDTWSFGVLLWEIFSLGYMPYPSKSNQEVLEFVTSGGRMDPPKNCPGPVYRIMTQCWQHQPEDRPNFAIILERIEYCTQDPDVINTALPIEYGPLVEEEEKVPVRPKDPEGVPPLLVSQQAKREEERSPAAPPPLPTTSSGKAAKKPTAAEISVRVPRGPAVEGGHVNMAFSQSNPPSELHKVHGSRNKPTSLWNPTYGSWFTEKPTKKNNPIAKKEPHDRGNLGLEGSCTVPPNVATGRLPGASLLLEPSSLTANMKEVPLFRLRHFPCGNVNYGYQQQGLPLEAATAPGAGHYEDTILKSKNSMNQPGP
T1 sequence (O60674 whole entry): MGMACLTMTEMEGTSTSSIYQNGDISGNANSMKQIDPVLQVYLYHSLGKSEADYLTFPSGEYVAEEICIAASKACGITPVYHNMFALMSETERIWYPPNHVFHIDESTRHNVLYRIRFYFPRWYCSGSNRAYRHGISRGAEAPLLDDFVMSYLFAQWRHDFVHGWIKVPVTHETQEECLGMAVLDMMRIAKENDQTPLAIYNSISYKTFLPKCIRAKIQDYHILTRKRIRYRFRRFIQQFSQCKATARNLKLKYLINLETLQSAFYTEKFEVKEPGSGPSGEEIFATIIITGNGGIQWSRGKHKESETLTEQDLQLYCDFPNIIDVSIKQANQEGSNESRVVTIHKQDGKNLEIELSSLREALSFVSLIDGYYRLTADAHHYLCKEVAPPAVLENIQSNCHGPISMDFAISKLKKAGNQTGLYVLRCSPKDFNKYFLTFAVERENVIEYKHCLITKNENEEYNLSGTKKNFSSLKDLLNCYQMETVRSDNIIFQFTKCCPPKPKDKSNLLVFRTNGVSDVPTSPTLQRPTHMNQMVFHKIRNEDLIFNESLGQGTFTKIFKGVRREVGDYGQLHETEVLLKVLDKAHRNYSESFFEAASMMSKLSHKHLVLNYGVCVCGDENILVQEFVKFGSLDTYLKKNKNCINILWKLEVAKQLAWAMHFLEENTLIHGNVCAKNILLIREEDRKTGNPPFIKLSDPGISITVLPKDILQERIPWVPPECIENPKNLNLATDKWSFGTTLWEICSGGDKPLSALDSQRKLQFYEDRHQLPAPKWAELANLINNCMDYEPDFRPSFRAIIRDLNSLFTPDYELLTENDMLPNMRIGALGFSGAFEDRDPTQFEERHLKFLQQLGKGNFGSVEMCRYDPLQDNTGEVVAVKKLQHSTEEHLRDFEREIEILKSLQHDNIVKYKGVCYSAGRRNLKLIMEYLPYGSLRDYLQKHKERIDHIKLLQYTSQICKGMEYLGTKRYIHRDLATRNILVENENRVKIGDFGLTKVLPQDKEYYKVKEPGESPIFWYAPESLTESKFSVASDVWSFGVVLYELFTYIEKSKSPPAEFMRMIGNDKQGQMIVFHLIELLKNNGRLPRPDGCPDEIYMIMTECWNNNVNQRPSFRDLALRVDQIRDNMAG

In the case of `Cc1cc(N2CCN(C)CC2)ccc1Nc1ncc2ccc(-c3ccc(S(C)(=O)=O)cc3)n2n1` [Example 67, [7-(4-Methanesulfonyl-phenyl)-pyrrolo[2,1-f][1,2,4]triazin-2-yl]-[2-methyl-4-(4-methyl-piperazin-1-yl)-phenyl]-amine], the IC50 is below 100 nM on JAK2 and 100 to 1000 nM at ALK.

Consider `Cc1cc(N2CCN(C)CC2)ccc1Nc1ncc2ccc(-c3cccc(Cl)c3)n2n1` [Example 68, [7-(3-Chloro-phenyl)-pyrrolo[2,1-f][1,2,4]triazin-2-yl]-[2-methyl-4-(4-methyl-piperazin-1-yl)-phenyl]-amine], for which the IC50 at JAK2 and on ALK was below 100 nM throughout.

Consider `Cc1cc(Nc2ncc3ccc(-c4cccc(Cl)c4)n3n2)ccc1N1CCN(C)CC1` [Example 69, [7-(3-Chloro-phenyl)-pyrrolo[2,1-f][1,2,4]triazin-2-yl]-[3-methyl-4-(4-methyl-piperazin-1-yl)-phenyl]-amine], for which the IC50 at JAK2 and on ALK was below 100 nM in each case.

For the molecule `FC(F)(F)c1ccc(Cl)c(-c2ccc3cnc(Nc4ccc(N5CCOCC5)cc4)nn23)c1` [Example 70, [7-(2-Chloro-5-trifluoromethyl-phenyl)-pyrrolo[2,1-f][1,2,4]triazin-2-yl]-(4-morpholin-4-yl-phenyl)-amine], the IC50 at JAK2 was below 100 nM; at ALK, 1000 to 10000 nM.

As to `CN(C)S(=O)(=O)c1ccc(-c2ccc3cnc(Nc4ccc(N5CCOCC5)cc4)nn23)cc1` [Example 71, N,N-Dimethyl-4-[2-(4-morpholin-4-yl-phenylamino)-pyrrolo[2,1-f][1,2,4]triazin-7-yl]-benzenesulfonamide], the IC50 on JAK2 is below 100 nM; on ALK it was above 10000 nM.

Regarding `O=C(c1ccccc1)c1ccc2cnc(Nc3ccc(N4CCOCC4)cc3)nn12` [Example 72, [2-(4-Morpholin-4-yl-phenylamino)-pyrrolo[2,1-f][1,2,4]triazin-7-yl]-phenyl-methanone], the IC50 at JAK2 was below 100 nM; at ALK, 1000 to 10000 nM.

As to `COc1ccc(-c2ccc3cnc(Nc4ccc(N5CCN(C)CC5)cc4OC)nn23)cn1` [Example 73, [2-Methoxy-4-(4-methyl-piperazin-1-yl)-phenyl]-[7-(6-methoxy-pyridin-3-yl)-pyrrolo[2,1-f][1,2,4]triazin-2-yl]-amine], the IC50 at JAK2 and on ALK was below 100 nM each time.

Turning to `Cc1ccc(S(=O)(=O)N(C)C)cc1-c1ccc2cnc(Nc3ccc(N4CCN(C)CC4)cc3)nn12` [Example 74, 4,N,N-Trimethyl-3-{2-[4-(4-methyl-piperazin-1-yl)-phenylamino]-pyrrolo[2,1-f][1,2,4]triazin-7-yl}-benzenesulfonamide], the results for the IC50 at JAK2 and on ALK were below 100 nM and 100 to 1000 nM, respectively.

Turning to `COc1cc(N2CCN(C)CC2)ccc1Nc1ncc2ccc(-c3cc(S(=O)(=O)N(C)C)ccc3C)n2n1` [Example 75, 3-{2-[2-Methoxy-4-(4-methyl-piperazin-1-yl)-phenylamino]-pyrrolo[2,1-f][1,2,4]triazin-7-yl}-4,N,N-trimethyl-benzenesulfonamide], the IC50 at JAK2 and at ALK was 100 to 1000 nM throughout.

As for `COc1cc(N2CCN(C)CC2)ccc1Nc1ncc2ccc(-c3cccc(S(C)(=O)=O)c3)n2n1` [Example 76, [7-(3-Methanesulfonyl-phenyl)-pyrrolo[2,1-f][1,2,4]triazin-2-yl]-[2-methoxy-4-(4-methyl-piperazin-1-yl)-phenyl]-amine], the IC50 at JAK2 and on ALK was below 100 nM throughout.

For `COc1cc(N2CCN(C)CC2)ccc1Nc1ncc2ccc(-c3ccc(C#N)nc3)n2n1` [Example 77, 5-{2-[2-Methoxy-4-(4-methyl-piperazin-1-yl)-phenylamino]-pyrrolo[2,1-f][1,2,4]triazin-7-yl}-pyridine-2-carbonitrile], the IC50 on JAK2 was below 100 nM; on ALK, 100 to 1000 nM.

`CN1CCN(c2ccc(Nc3ncc4ccc(Sc5ccccc5)n4n3)cc2)CC1` [Example 78, [4-(4-Methyl-piperazin-1-yl)-phenyl]-(7-phenylsulfanyl-pyrrolo[2,1-f][1,2,4]triazin-2-yl)-amine]: the IC50 at JAK2 and on ALK was below 100 nM throughout.

Take `Clc1cccc(-c2ccc3cnc(Nc4ccc(N5CCOCC5)nc4)nn23)c1` [Example 79, [7-(3-Chloro-phenyl)-pyrrolo[2,1-f][1,2,4]triazin-2-yl]-(6-morpholin-4-yl-pyridin-3-yl)-amine]: the IC50 was below 100 nM at JAK2 and above 10000 nM at ALK.

`Clc1cc(N2CCOCC2)ccc1Nc1ncc2c(Cl)cc(-c3ccccc3)n2n1` [Example 80, (2-Chloro-4-morpholin-4-yl-phenyl)-(5-chloro-7-phenyl-pyrrolo[2,1-f][1,2,4]triazin-2-yl)-amine]: the IC50 was below 100 nM at JAK2 and above 10000 nM on ALK.

Turning to `CN1CCN(c2ccc(Nc3ncc4ccc(-c5cccc(S(C)(=O)=O)c5)n4n3)cc2)CC1` [Example 82, [7-(3-Methanesulfonyl-phenyl)-pyrrolo[2,1-f][1,2,4]triazin-2-yl]-[4-(4-methyl-piperazin-1-yl)-phenyl]-amine], the values for the IC50 at JAK2 and at ALK were below 100 nM and 100 to 1000 nM, respectively.

Take `CN1CCN(c2ccc(Nc3ncc4ccc(-c5ccc(S(=O)(=O)N(C)C)cc5)n4n3)cc2)CC1` [Example 83, N,N-Dimethyl-4-{2-[4-(4-methyl-piperazin-1-yl)-phenylamino]-pyrrolo[2,1-f][1,2,4]triazin-7-yl}-benzenesulfonamide]: the IC50 at JAK2 is below 100 nM; on ALK it was 100 to 1000 nM.

In the case of `CN1CCN(c2ccc(Nc3ncc4c(Br)cc(Br)n4n3)cc2)CC1` [Example 84, (5,7-Dibromo-pyrrolo[2,1-f][1,2,4]triazin-2-yl)-[4-(4-methyl-piperazin-1-yl)-phenyl]-amine], the IC50 at JAK2 was below 100 nM; on ALK it was 1000 to 10000 nM.

Consider `CN(C)S(=O)(=O)c1ccc(-c2ccc3cnc(Nc4ccc(N5CCCCC5)cc4)nn23)cc1` [Example 86, N,N-Dimethyl-4-[2-(4-piperidin-1-yl-phenylamino)-pyrrolo[2,1-f][1,2,4]triazin-7-yl]-benzenesulfonamide], for which the IC50 is below 100 nM on JAK2 and above 10000 nM on ALK.

For the molecule `CS(=O)(=O)c1ccc(-c2ccc3cnc(Nc4ccc(N5CCC(CO)CC5)cc4)nn23)cc1` [Example 87, (1-{4-[7-(4-Methanesulfonyl-phenyl)-pyrrolo[2,1-f][1,2,4]triazin-2-ylamino]-phenyl}-piperidin-4-yl)-methanol], the IC50 at JAK2 is below 100 nM; on ALK it was 1000 to 10000 nM.

As to `CS(=O)(=O)c1ccc(-c2ccc3cnc(Nc4ccc(N5CCN(CCO)CC5)cc4)nn23)cc1` [Example 88, 2-(4-{4-[7-(4-Methanesulfonyl-phenyl)-pyrrolo[2,1-f][1,2,4]triazin-2-ylamino]-phenyl}-piperazin-1-yl)-ethanol], the values for the IC50 on JAK2 and at ALK were below 100 nM and 100 to 1000 nM, respectively.

Consider `COCCN1CCc2ccc(Nc3ncc4ccc(-c5ccc(S(C)(=O)=O)cc5)n4n3)cc2CC1` [Example 89, [7-(4-Methanesulfonyl-phenyl)-pyrrolo[2,1-f][1,2,4]triazin-2-yl]-[3-(2-methoxy-ethyl)-2,3,4,5-tetrahydro-1H-benzo[d]azepin-7-yl]-amine], for which the figures for the IC50 at JAK2 and at ALK were below 100 nM and 100 to 1000 nM, respectively.
